Literature values in patent EP0773217A1, “Benzothiphene derivatives for treating resistant tumors” (ELI LILLY AND COMPANY, priority 1995, dated 1997).
Converted amounts (≈) assume the structure as drawn.

Legend:
HL60/S cells = conditions: no P-glycoprotein expression
HL60/Adr cells = HL60/Adr cells (resistant to doxorubicin, express p190, no P-glycoprotein)

IC50 (HL60/S cells) [µg/mL] | IC50 (HL60/Adr cells) [µg/mL] | Compound
0.011 (≈ 0.0202 µM) | 2.2 (≈ 4.05 µM) | COc1cccc2c1C(=O)c1c(O)c3c(c(O)c1C2=O)C[C@@](O)(C(=O)CO)C[C@@H]3O[C@H]1C[C@H](N)[C@H](O)[C@H](C)O1 [ADRIAMYCIN™, Doxorubicin]
0.39 (≈ 0.663 µM) | > 10 | COc1cc([C@@H]2c3cc4c(cc3[C@@H](O[C@@H]3O[C@@H]5CO[C@@H](C)O[C@H]5[C@H](O)[C@H]3O)[C@H]3COC(=O)[C@H]23)OCO4)cc(OC)c1O [ETOPOSIDE™, etoposide]
